In patent US20030194738A1, “Antisense oligonucleotide compositions and methods for the modulation of activating protein 1” (priority 1997, published 2003):
“And” between values parts separate entries of the source, which are not always exact repeats. Identical values can stand only once. “Also recorded” adds a separate entry of the source.

Tests used:
c-jun mRNA [1] = assay: c-jun mRNA expression in TPA-induced A549 cells, Northern blotting; format: cell-based, human; conditions: A549 cells
Protocol: In order to evaluate the activity of potential c-fos and c-jun modulating oligonucleotides, A549 cells were grown in T-75 flasks until 80-90% confluent. (Cell line A549 is available from, inter alia, the American Type Culture Collection, Rockville, Md., as ATCC No. CCL-185.) At this time, the cells were washed twice with 10 mL of media (DMEM), followed by the addition of 5 mL of DMEM containing 20 μg/mL of LIPOFECTIN™ (i.e., DOTMA/DOPE (N-[1-(2,3-dioleyloxy)propyl]-N,N,N-[…] chloride/dioleoylphosphatidyl ethanolamine)). […] After 4 hours at 37° C., the medium was replaced with DMEM containing 10% serum. At this point, 1 μM 12-O-tetradecanoylphorbol 13-acetate (TPA) was added to induce expression of c-fos and c-jun. Cells were extracted in guanidinium one hour later, and the c-fos and c-jun mRNA expression was determined by Northern blotting. Probes for human c-jun and c-fos were PCR products prepared using primers based on the published sequences thereof (respectively, Hattori et al., Proc. Natl. Acad. Sci. U.S.A., 1988, 85:9148, and Van Straaten et al., Proc. Natl. Acad. Sci. U.S.A., 1983, 80:3183).

c-Fos protein = c-Fos protein levels in TPA-induced A549 cells, immunoblot; format: cell-based, human; conditions: TPA (1 uM) for three hours
Protocol: The ability of the c-fos active oligonucleotide ISIS 10639 to reduce expression of the c-Fos protein was examined as follows. A549 cells were treated with oligonucleotides as in Examples 2-3, except that induction of c-Fos was effected by treatment of cells with TPA (1 uM) for three hours. At this time, whole cell protein was extracted in SDS (sodium dodecyl sulfate) buffer. Samples of extracts were electrophoresed, transferred to nitrocellulose filters which were immunoblotted using a c-Fos-specific antibody (Santa Cruz AB, Santa Cruz, Calif.).

A549 tumors = assay: Growth of A549 tumor fragments implanted subcutaneously in nude mice; format: in vivo; conditions: 25 mg/kg daily i.v. for three weeks; for Mean Tumor Weight: nude mice
Protocol: In order to evaluate the in vivo activity of c-fos oligonucleotides, 25 mg of tumor fragments of A549 tumors were implanted subcutaneously in nude mice (n=6). ISIS 10639 was administered daily, i.v., for three weeks. The oligonucleotide dosage was 25 mg/kg. […] By day 34, saline-treated tumors were 0.56±0.12 g by weight, while tumors treated with ISIS 10639 were 0.31±0.1 g by weight.

c-fos mRNA [2] = assay: c-fos mRNA expression in TPA-induced A549 cells, Northern blotting; format: cell-based, human; conditions: TPA induction, 1 hour
c-fos mRNA [3] = assay: as above; format: cell-based, human
Protocol: In order to evaluate the activity of potential c-fos and c-jun modulating oligonucleotides, A549 cells were grown in T-75 flasks until 80-90% confluent. (Cell line A549 is available from, inter alia, the American Type Culture Collection, Rockville, Md., as ATCC No. CCL-185.) At this time, the cells were washed twice with 10 mL of media (DMEM), followed by the addition of 5 mL of DMEM containing 20 μg/mL of LIPOFECTIN™ (i.e., DOTMA/DOPE (N-[1-(2,3-dioleyloxy)propyl]-N,N,N-[…] chloride/dioleoylphosphatidyl ethanolamine)). The oligonucleotides were added from a 10 μM stock solution to a final concentration of 400 nM, and the two solutions were mixed by swirling the flasks. After 4 hours at 37° C., the medium was replaced with DMEM containing 10% serum. At this point, 1 μM 12-O-tetradecanoylphorbol 13-acetate (TPA) was added to induce expression of c-fos and c-jun. Cells were extracted in guanidinium one hour later, and the c-fos and c-jun mRNA expression was determined by Northern blotting. Probes for human c-jun and c-fos were PCR products prepared using primers based on the published sequences thereof (respectively, Hattori et al., Proc. Natl. Acad. Sci. U.S.A., 1988, 85:9148, and Van Straaten et al., Proc. Natl. Acad. Sci. U.S.A., 1983, 80:3183).
Finally, it can also be seen from Table 5 that neither active oligonucleotide has any detectable effect on mRNA levels of the other active oligonucleotide's target.
Once oligonucleotides that modulate c-Fos or c-Jun are identified, derivative or modified oligonucleotides having the same sequence thereas are prepared. In order to evaluate the effect of chemical modifications to oligonucleotides to c-fos and c-jun, the modified oligonucleotides described in Tables 8 and 9 were prepared. The effect of the c-fos-targeted oligonucleotides on c-fos RNA levels were evaluated as described in Examples 2-3. […] Other modified oligonucleotides of the invention are evaluated in like fashion. In order to evaluate the effect of PNA antisense analogs, the PNA analogs of the invention are introduced into appropriate cell lines by microinjection according to the method of Hanvey et al. (Science, 1992, 258:1481). Intracellular delivery of PNA analogs is confirmed by the use of a fluorescently tagged PNA antisense analog conjugate such as, e.g., ISIS 14240.

c-jun mRNA [4] = assay: c-jun mRNA levels in PDGF-stimulated rat aortic smooth muscle cells; format: cell-based; conditions: 200 nM for 4 hours; 2 and 6 hours after exposure to PDGF (10 ng/ml); versus untreated or ISIS 12898-treated cells
Protocol: (§1) In order to evaluate the effect of AP-1 modulation on cell cycle progression, the following study was performed. Cultured rat aortic smooth muscle (RASM) cells are stimulated to proliferate upon contact with platelet-derived growth factor (PDGF). Primary RASM cells (passages 6-8) were synchronized by incubation for 48 hours in DMEM containing 0.1% FBS. The cells were treated for 4 hours with 200 nM ISIS 12633 (SEQ ID NO:78), a 20-mer phosphorothioate oligonucleotide complementary to a portion of the 3′ UTR of rat c-jun mRNA, or ISIS 12898 (SEQ ID NO:92), a scrambled control of ISIS 12633. Cells were then contacted with PDGF (10 ng/ml) (R&D Systems, Minneapolis, Minn.), and cell cycle progression was assessed by FACS analysis 24 hours later. At 2 and 6 hours after exposure to PDGF, c-jun mRNA levels were markedly less in ISIS 12633-treated cells as compared to untreated cells or cells treated with ISIS 12898.

[5] = tested on: rat aortic smooth muscle (RASM) cells; assay: Cell cycle progression of PDGF-stimulated rat aortic smooth muscle cells, FACS analysis; format: cell-based; conditions: 200 nM; 24 hours after PDGF
Protocol: as §1

rat c-jun mRNA = assay: Rat c-jun mRNA expression in rat A10 cells; format: cell-based
Protocol: Tables 13 and 14 show the sequences of oligonucleotides designed to modulate rat c-jun and c-fos mRNA expression, respectively. For the nucleotide sequence of the rat c-jun gene, see Genbank accession No. X17163/RSJUNAP1 and Saaki et al., Cancer Res., 1989, 49:5633. The nucleotide sequence of the rat c-fos gene is described in Genbank accession No. X06769/RNCFOSR and Curran et al., Oncogene, 1987, 2:79. Oligonucleotide activities were evaluated as described infra in Example 2 et seq. with the exception that rat A10 cells (available from, inter alia, the American Type Culture Collection, Rockville, Md., as ATCC No. CRL-1476) were used instead of human A549 cells. Due to the high degree of homology between human and rat c-jun and c-fos nucleotide sequences, probes derived from the human genes were used to detect the rat messages.
Another preferred oligonucleotide targeted to rat AP-1 subunits is ISIS 12635 (SEQ ID NO:80).

Substance: AAG-TCC-TTG-AGG-CCC-ACA-GC (AAGTCCTTGAGGCCCACAGC; antisense; all phosphorothioate, sugars by position and methylation of C not given here) [ISIS 10639]
- effect on c-jun mRNA levels during TPA induction (in words) (c-jun mRNA [1]): no detectable effect
- c-jun (mRNA level, specificity experiment) (c-jun mRNA [1]; Table 5, TPA - no oligo = 100, basal = 23): 97
- c-Fos protein level (in words) (c-Fos protein; A549 cells): basal levels
- c-Fos (protein level) (c-Fos protein; Table 7, TPA - no oligo = 100, basal = 21): 19
- tumor growth rate (in words) (A549 tumors; versus saline): substantial reduction
- Mean Tumor Weight (A549 tumors; Day 17): 0.105 g
- Mean Tumor Weight (A549 tumors; Day 20): 0.138 g
- Mean Tumor Weight (A549 tumors; Day 27): 0.225 g
- Mean Tumor Weight (A549 tumors; Day 34, 25 mg/kg): 0.31 ± 0.1 g and 0.310 g
- c-fos mRNA LEVELS (% CONTROL) (c-fos mRNA [2]; 50 nM oligonucleotide): 64 % CONTROL
- c-fos mRNA LEVELS (% CONTROL) (c-fos mRNA [2]; 100 nM oligonucleotide): 46 % CONTROL
- c-fos mRNA LEVELS (% CONTROL) (c-fos mRNA [2]; 200 nM oligonucleotide): 20.5 % CONTROL
- c-fos mRNA % CONTROL (c-fos mRNA [3]; 400 nM oligonucleotide with LIPOFECTIN, control is TPA induction, at 1 hour, in A549 cells): 9 % CONTROL
- inhibition of c-fos mRNA expression (c-fos mRNA [3]; 400 nM oligonucleotide, TPA-induced A549 cells): 91%
- c-fos mRNA LEVELS (% CONTROL) (c-fos mRNA [3]; 400 nM oligonucleotide, TPA induction, 1 hour, A549 cells): 9 % CONTROL
- effect on c-fos mRNA levels during TPA induction (in words) (c-fos mRNA [3]; A549 cells): dose-dependent; also recorded: potent and specific inhibition
- c-fos (mRNA level, specificity experiment) (c-fos mRNA [3]; Table 5, TPA - no oligo = 100, basal = 5, A549 cells): 9
- c-fos (expression, modified oligonucleotides) (c-fos mRNA [3]; Table 10, TPA - no oligo = 100, basal = 3, A549 cells): 9

Substance: TTT-TCT-TCC-ACT-GCC-CCT-CA (TTTTCTTCCACTGCCCCTCA; DNA, all phosphorothioate, methylation of C not given here) [ISIS 12633]
- c-jun mRNA levels (in words) (c-jun mRNA [4]): markedly less
- proportion of cells in the G2/M interface (in words) [5]: significant decrease
- modulation of rat c-jun (in words) (rat c-jun mRNA): active modulator
